This is an account of results in patent US10259810B2, “N-sulfonylated pyrazolo[3,4-b]pyridin-6-carboxamides and method of use” (AbbVie S.à.r.l., priority 2015, dated 2019).

In experiment [1] the target is T1, ΔF508-CFTR (Homo sapiens, UniProt P13569, DEL508-508).
T1 construct: host or cells: CFBE41o-, doxycycline-inducible
In words: CFTR cell surface levels using HRP-tagged ΔF508-CFTR expressing CFBE cells, in the presence of a co-corrector. It counts as cell-based. The conditions noted are these: HRP-tagged ΔF508-CFTR CFBE cells, in the presence of 3 μM co-corrector; for EC50: read-out: EC50. The essentials:
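Chemiluminescent read-out of surface HRP (15 min, dark) after PBS washes. Activity is normalized as 100×(sample−DMSO)/(3 μM co-corrector alone−DMSO).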

Experiment [2] addresses T1, ΔF508-CFTR. In words: CFTR cell surface levels using HRP-tagged ΔF508-CFTR expressing CFBE cells, intrinsic corrector capacity. It counts as cell-based. More on the design: % Activation: concentration or dose not given beside the values. The note with it: HRP-tagged ΔF508-CFTR expressing CFBE41o- cells, compound alone (intrinsic corrector capacity), 20 hours at 33° C.; for EC50: read-out: EC50. The essentials: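 Surface ΔF508-CFTR was measured as HRP chemiluminescence from an extracellular-loop-4 tag, expressed as percent activity between DMSO and a […] corrector control.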

T1 sequence (P13569 with tags, fused parts or gaps DEL508-508): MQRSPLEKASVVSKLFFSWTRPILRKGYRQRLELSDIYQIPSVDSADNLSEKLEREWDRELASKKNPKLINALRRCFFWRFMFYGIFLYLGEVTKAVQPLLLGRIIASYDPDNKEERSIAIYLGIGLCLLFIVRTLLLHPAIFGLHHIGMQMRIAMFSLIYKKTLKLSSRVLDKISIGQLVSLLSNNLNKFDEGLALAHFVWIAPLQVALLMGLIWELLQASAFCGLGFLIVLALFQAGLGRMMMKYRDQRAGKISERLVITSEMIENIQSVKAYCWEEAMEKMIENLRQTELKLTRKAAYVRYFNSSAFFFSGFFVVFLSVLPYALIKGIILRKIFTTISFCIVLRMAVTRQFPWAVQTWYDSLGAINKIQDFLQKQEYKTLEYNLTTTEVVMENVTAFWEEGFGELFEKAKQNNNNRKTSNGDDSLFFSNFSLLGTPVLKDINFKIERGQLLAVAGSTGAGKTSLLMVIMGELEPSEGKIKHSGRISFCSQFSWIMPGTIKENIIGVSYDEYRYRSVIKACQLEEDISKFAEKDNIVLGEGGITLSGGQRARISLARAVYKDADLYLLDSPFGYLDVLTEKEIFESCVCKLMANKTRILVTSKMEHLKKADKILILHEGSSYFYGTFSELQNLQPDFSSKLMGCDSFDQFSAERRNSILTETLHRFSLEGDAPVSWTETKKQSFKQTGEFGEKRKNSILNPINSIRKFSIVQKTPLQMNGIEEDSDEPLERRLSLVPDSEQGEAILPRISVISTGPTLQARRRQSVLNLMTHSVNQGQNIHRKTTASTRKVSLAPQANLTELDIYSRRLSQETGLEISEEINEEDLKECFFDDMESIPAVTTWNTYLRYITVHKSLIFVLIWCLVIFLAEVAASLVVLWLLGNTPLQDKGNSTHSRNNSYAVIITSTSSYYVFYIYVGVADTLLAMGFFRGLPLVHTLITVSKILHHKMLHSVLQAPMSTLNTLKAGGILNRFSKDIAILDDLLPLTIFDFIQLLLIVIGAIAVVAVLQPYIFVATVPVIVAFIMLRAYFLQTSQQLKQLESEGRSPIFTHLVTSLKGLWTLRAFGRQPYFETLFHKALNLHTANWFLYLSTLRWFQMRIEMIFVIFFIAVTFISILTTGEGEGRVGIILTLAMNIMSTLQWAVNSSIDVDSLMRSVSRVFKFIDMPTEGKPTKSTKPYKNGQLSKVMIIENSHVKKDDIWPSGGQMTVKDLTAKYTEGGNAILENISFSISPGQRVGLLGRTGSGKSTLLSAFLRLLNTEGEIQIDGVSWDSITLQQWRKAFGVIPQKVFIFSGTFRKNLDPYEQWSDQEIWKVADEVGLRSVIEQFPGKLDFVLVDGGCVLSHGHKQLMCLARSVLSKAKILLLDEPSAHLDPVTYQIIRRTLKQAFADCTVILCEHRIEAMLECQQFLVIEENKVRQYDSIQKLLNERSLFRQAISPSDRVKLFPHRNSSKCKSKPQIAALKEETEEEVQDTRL

On to `CC1(S(=O)(=O)NC(=O)c2cc(N3CCC(N4CCN(C5CC5)CC4)CC3)c3c(C4CCC4)nn(-c4ccccc4)c3n2)CC1` [Compound 557, 3-cyclobutyl-4-[4-(4-cyclopropylpiperazin-1-yl)piperidin-1-yl]-N-(1-methylcyclopropane-1-sulfonyl)-1-phenyl-1H-pyrazolo[3,4-b]pyridine-6-carboxamide], for which, on ΔF508-CFTR [1], the “% Activation” value is 474.4% and the concentration for a half-maximal effect (EC50) (in general, the concentration that produces a half-maximal response) stood at 116 nM. Besides, on ΔF508-CFTR [2], the “% Activation” value was found to be 248.5% and the EC50 stood at 252 nM.

Regarding `CN(C)S(=O)(=O)NC(=O)c1cc(N2CCC(N3CCC(C(F)(F)F)C3)CC2)c2c(C3CCC3)nn(-c3ccc(F)cc3)c2n1` (centres unmarked) [Compound 560, 3-cyclobutyl-N-(dimethylsulfamoyl)-1-(4-fluorophenyl)-4-{4-[3-(trifluoromethyl)pyrrolidin-1-yl]piperidin-1-yl}-1H-pyrazolo[3,4-b]pyridine-6-carboxamide], on ΔF508-CFTR [1], the “% Activation” value is 544.45% and the concentration for a half-maximal effect (EC50) stood at 66.1 nM. Also, at ΔF508-CFTR [2], the “% Activation” value is on record as 260.4% and the EC50 stood at 96.3 nM.

`CN(C)S(=O)(=O)NC(=O)c1cc(N2CCC(N3CCCC(F)C3)CC2)c2c(C3CCC3)nn(-c3ccc(F)cc3)c2n1` (centres unmarked) [Compound 563, 3-cyclobutyl-N-(dimethylsulfamoyl)-4-(3-fluoro[1,4'-bipiperidin]-1'-yl)-1-(4-fluorophenyl)-1H-pyrazolo[3,4-b]pyridine-6-carboxamide]: at ΔF508-CFTR [1], the “% Activation” value turned out to be 542.9% and the EC50 was found to be 111 nM. Besides, at ΔF508-CFTR [2], the “% Activation” value came out at 298.9% and the EC50 turned out to be 198 nM.

Regarding `CS(=O)(=O)NC(=O)c1cc(N2CCC(N3CCC(C(F)(F)F)C3)CC2)c2c(C3CCC3)nn(-c3ccc(F)cc3)c2n1` (centres unmarked) [Compound 564, 3-cyclobutyl-1-(4-fluorophenyl)-N-(methanesulfonyl)-4-{4-[3-(trifluoromethyl)pyrrolidin-1-yl]piperidin-1-yl}-1H-pyrazolo[3,4-b]pyridine-6-carboxamide], at ΔF508-CFTR [1], the “% Activation” value came out at 587.4% and the half-maximal effective concentration (EC50) was determined as 40.8 nM. Moreover, at ΔF508-CFTR [2], the “% Activation” value is reported as 361.35% and the EC50 turned out to be 118 nM.

Regarding `CS(=O)(=O)NC(=O)c1cc(N2CCC(N3CCC(C#N)C3)CC2)c2c(C3CCC3)nn(-c3ccc(F)cc3)c2n1` (centres unmarked) [Compound 565, 4-[4-(3-cyanopyrrolidin-1-yl)piperidin-1-yl]-3-cyclobutyl-1-(4-fluorophenyl)-N-(methanesulfonyl)-1H-pyrazolo[3,4-b]pyridine-6-carboxamide], on ΔF508-CFTR [1], the “% Activation” value is 637.53% and the concentration giving a half-maximal response (EC50) came out at 69.9 nM. Also, on ΔF508-CFTR [2], the “% Activation” value is listed as 373.15% and the EC50 worked out at 182 nM.

On to `CS(=O)(=O)NC(=O)c1cc(N2CCC(N3CCCC(C#N)C3)CC2)c2c(C3CCC3)nn(-c3ccc(F)cc3)c2n1` (centres unmarked) [Compound 566, 4-(3-cyano[1,4'-bipiperidin]-1'-yl)-3-cyclobutyl-1-(4-fluorophenyl)-N-(methanesulfonyl)-1H-pyrazolo[3,4-b]pyridine-6-carboxamide], for which, on ΔF508-CFTR [1], the “% Activation” value was 708.8% and the EC50 amounted to 400 nM. Moreover, at ΔF508-CFTR [2], the “% Activation” value was 365.1% and the half-maximal effective concentration (EC50) was determined as 112 nM.

Consider `CS(=O)(=O)NC(=O)c1cc(N2CCC(N3CCCC(F)C3)CC2)c2c(C3CCC3)nn(-c3ccc(F)cc3)c2n1` (centres unmarked) [Compound 567, 3-cyclobutyl-4-(3-fluoro[1,4'-bipiperidin]-1'-yl)-1-(4-fluorophenyl)-N-(methanesulfonyl)-1H-pyrazolo[3,4-b]pyridine-6-carboxamide], for which, at ΔF508-CFTR [1], the “% Activation” value was found to be 539.8% and the EC50 was found to be 56.3 nM. Further, on ΔF508-CFTR [2], the “% Activation” value was 312.2% and the concentration giving a half-maximal response (EC50) is 139 nM.

On to `O=C(NS(=O)(=O)N1CCCCC1)c1cc(N2CCC(N3CCOCC3)CC2)c2c(C3CCC3)nn(-c3ccc(F)cc3)c2n1` [Compound 568, 3-cyclobutyl-1-(4-fluorophenyl)-4-[4-(morpholin-4-yl)piperidin-1-yl]-N-(piperidine-1-sulfonyl)-1H-pyrazolo[3,4-b]pyridine-6-carboxamide], for which, at ΔF508-CFTR [1], the “% Activation” value is given as 461% and the EC50 was 46.3 nM. Besides, on ΔF508-CFTR [2], the “% Activation” value is listed as 240.65% and the half-maximal effective concentration (EC50) is 77.5 nM.

With `O=C(NS(=O)(=O)N1CC(F)C1)c1cc(N2CCC(N3CCOCC3)CC2)c2c(C3CCC3)nn(-c3ccc(F)cc3)c2n1` [Compound 569, 3-cyclobutyl-N-(3-fluoroazetidine-1-sulfonyl)-1-(4-fluorophenyl)-4-[4-(morpholin-4-yl)piperidin-1-yl]-1H-pyrazolo[3,4-b]pyridine-6-carboxamide], on ΔF508-CFTR [1], the “% Activation” value came to 436.13% and the concentration for a half-maximal effect (EC50) came out at 88.9 nM. At ΔF508-CFTR [2], the “% Activation” value came out at 220.77% and the EC50 stood at 112 nM.

`CN(C)S(=O)(=O)NC(=O)c1cc(N2CCC(N3CCCC(C(F)(F)F)C3)CC2)c2c(C3CCC3)nn(-c3ccc(F)cc3)c2n1` (centres unmarked) [Compound 571, 3-cyclobutyl-N-(dimethylsulfamoyl)-1-(4-fluorophenyl)-4-[3-(trifluoromethyl)[1,4'-bipiperidin]-1'-yl]-1H-pyrazolo[3,4-b]pyridine-6-carboxamide]: at ΔF508-CFTR [1], the “% Activation” value amounted to 487.9% and the EC50 came to 77.8 nM. Further, on ΔF508-CFTR [2], the “% Activation” value came out at 268.15% and the EC50 amounted to 129 nM.

For the compound `COC1CCCN(C2CCN(c3cc(C(=O)NS(=O)(=O)N(C)C)nc4c3c(C3CCC3)nn4-c3ccc(F)cc3)CC2)C1` (centres unmarked) [Compound 572, 3-cyclobutyl-N-(dimethylsulfamoyl)-1-(4-fluorophenyl)-4-(3-methoxy[1,4'-bipiperidin]-1'-yl)-1H-pyrazolo[3,4-b]pyridine-6-carboxamide], the entries for the “% Activation” value on ΔF508-CFTR [1] and on ΔF508-CFTR [2] were 412.9% and 237.55%, respectively. Besides, the EC50 stood at 225 nM on ΔF508-CFTR [1] and 295 nM at ΔF508-CFTR [2].

On to `CN(C)S(=O)(=O)NC(=O)c1cc(N2CCC(N3CCOC(C)(C)C3)CC2)c2c(C3CCC3)nn(-c3ccc(F)cc3)c2n1` [Compound 573, 3-cyclobutyl-4-[4-(2,2-dimethylmorpholin-4-yl)piperidin-1-yl]-N-(dimethylsulfamoyl)-1-(4-fluorophenyl)-1H-pyrazolo[3,4-b]pyridine-6-carboxamide], for which, on ΔF508-CFTR [1], the “% Activation” value was 467.57% and the 50% effective concentration (EC50) came to 58.5 nM. Further, at ΔF508-CFTR [2], the “% Activation” value worked out at 270.53% and the EC50 amounted to 104 nM.

In the case of `CC(=O)NCCS(=O)(=O)NC(=O)c1cc(N2CCC(N3CCOCC3)CC2)c2c(C3CCC3)nn(-c3ccc(F)cc3)c2n1` [Compound 574, N-(2-acetamidoethanesulfonyl)-3-cyclobutyl-1-(4-fluorophenyl)-4-[4-(morpholin-4-yl)piperidin-1-yl]-1H-pyrazolo[3,4-b]pyridine-6-carboxamide], on ΔF508-CFTR [1], the “% Activation” value was 283.3% and the EC50 was found to be 542 nM. Besides, on ΔF508-CFTR [2], the “% Activation” value was 129.9% and the EC50 worked out at 2760 nM.

For the compound `COC[C@H]1CCCN1S(=O)(=O)NC(=O)c1cc(N2CCC(N3CCOCC3)CC2)c2c(C3CCC3)nn(-c3ccc(F)cc3)c2n1` [Compound 577, 3-cyclobutyl-1-(4-fluorophenyl)-N-[(2R)-2-(methoxymethyl)pyrrolidine-1-sulfonyl]-4-[4-(morpholin-4-yl)piperidin-1-yl]-1H-pyrazolo[3,4-b]pyridine-6-carboxamide], at ΔF508-CFTR [1], the “% Activation” value was determined as 379.3% and the concentration for a half-maximal effect (EC50) stood at 105 nM. Also, on ΔF508-CFTR [2], the “% Activation” value was found to be 187.15% and the EC50 turned out to be 257 nM.
